Results from PubChem BioAssay (NCI).
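Exposure lasted 48 hours, with cells grown in 96-well plates and compounds tested at five concentrations. TGI denotes the concentration required for complete inhibition of growth.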

Key:
Assay in all cases: NCI anticancer screen, dose series, 48 h
CAKI-1 renal = system: CAKI-1 renal
EKVX NSCLC = system: EKVX NSCLC
HCT-116 colon = system: HCT-116 colon
HT29 colon = system: HT29 colon
IGROV1 ovarian = system: IGROV1 ovarian
MALME-3M melanoma = system: MALME-3M melanoma
NCI-H460 lung = system: NCI-H460 lung
OVCAR-3 ovarian = system: OVCAR-3 ovarian
RPMI-8226 leukemia = system: RPMI-8226 leukemia
SNB-19 CNS = system: SNB-19 CNS

Row | SMILES | TGI (CAKI-1 renal) | TGI (EKVX NSCLC) | TGI (HCT-116 colon) | TGI (HT29 colon) | TGI (IGROV1 ovarian) | TGI (MALME-3M melanoma) | TGI (NCI-H460 lung) | TGI (OVCAR-3 ovarian) | TGI (RPMI-8226 leukemia) | TGI (SNB-19 CNS)
1 | O=C(c1ccco1)N1CCN(C(=O)c2ccco2)C1=S | 16.7 µM | 36.7 µM | 23.2 µM | 24.2 µM | 27.4 µM | 23 µM | 30 µM | 11.6 µM | 7.31 µM | > 79.5 µM
2 | CC1(C)OC2CN(C(=O)OCc3ccccc3)C(CO)C2O1 (stereo not given) | > 100 µM | > 100 µM | > 100 µM | > 100 µM | > 100 µM | > 100 µM | > 100 µM | > 100 µM | > 100 µM | > 100 µM
3 | CO/N=C1/C(n2[nH]c(=O)n(-c3ccccc3)c2=O)C2C=CC1n1c(=O)n(-c3ccccc3)c(=O)n12 (stereo not given) | > 100 µM | > 100 µM | > 100 µM | > 100 µM | > 100 µM | > 100 µM | > 100 µM | > 100 µM | > 100 µM | > 100 µM
4 | O=[N+]([O-])/C(C(Cl)=C(Cl)Cl)=C(/Sc1ccccc1)N1CCOCC1 | 13 µM | 25.7 µM | 3.27 µM | 26.2 µM | 11.1 µM | 18.2 µM | 27.1 µM | 8.87 µM | 5.73 µM | 20.2 µM
5 | O=S(=O)(NC(c1ccccc1)(c1cc2ccccc2[nH]1)c1cc2ccccc2n1S(=O)(=O)c1ccccc1)c1ccccc1 (stereo not given) | > 100 µM | > 100 µM | > 100 µM | > 100 µM | > 100 µM | > 100 µM | > 100 µM | > 100 µM | > 100 µM | > 100 µM
6 | CN(C)CCCNC(=O)CNC(=O)c1cc(NC(=O)c2cc(NC(=O)c3cc(NC(=O)CCNC(=O)c4cc(NC(=O)c5cc(NC(=O)c6nccn6C)cn5C)cn4C)cn3C)cn2C)cn1C | > 100 µM | > 100 µM | > 100 µM | > 100 µM | > 100 µM | > 100 µM | > 100 µM | > 100 µM | > 100 µM | > 100 µM
7 | OCCCN(CCc1ccc(Cl)c(Cl)c1)CCN1CCCC1 | > 100 µM | > 100 µM | > 100 µM | > 100 µM | > 100 µM | 41.5 µM | > 100 µM | > 100 µM | 70.6 µM | > 100 µM
8 | C=CC1(CBr)CCC(C(C)(C)Br)O1 (stereo not given) | 16.5 µM | 32.1 µM | 18.5 µM | 14.4 µM | 22.7 µM | 27.8 µM | 27.7 µM | 22.6 µM | 6.11 µM | 30.1 µM
9 | CCOC(=O)C1(Cc2ccccc2)CCN(C(=O)c2ccccc2)C2C1C2(Cl)Cl (stereo not given) | 75 µM | 71.7 µM | 30 µM | 34.8 µM | > 100 µM | 51.5 µM | 35.9 µM | 47.1 µM | 38.2 µM | > 100 µM
10 | CCOC(=O)CC[C@@H](NC(=O)c1ccc(NCc2ccc3nc(OC)c(OC)nc3c2)cc1)C(=O)OCC | > 100 µM | > 100 µM | > 100 µM | > 100 µM | 56.7 µM | 39 µM | 44.3 µM | 38.3 µM | > 100 µM | > 100 µM
